{
  "source": "PubChem BioAssay AID270",
  "about": "(DTP/NCI, 2004)",
  "tested_on": "BDF1 mice, s.c. Lewis lung carcinoma, T/C %",
  "experiment": "NCI In Vivo Anticancer Drug Screen. Data for tumor model Lewis Lung Carcinoma (subcutaneous) in B6D2F1 (BDF1) mice",
  "description": "The antitumor activity of compounds was measured in mice bearing transplantable tumors. Survival or tumor size were measured and the results are expressed as the measurement made in the treated group (T) divided by the measurement made in the vehicle treated control group (C). The tumor model used in this assay is Lewis Lung Carcinoma (subcutaneous) in B6D2F1 (BDF1) mice",
  "note": "Results filed as inconclusive are left out.",
  "data": [
    {"compound": "O=C(NC(Cc1ccccc1)C(=O)CCl)OCc1ccccc1", "note": "(stereo not drawn)", "values": [
      {"measurement": "T/C", "setting": "endpoint: median survival time, dose: 3.12 mg/kg/injection, schedule: Q01DX009 (ip), vehicle: saline with Tween-80, higher = longer survival", "value": "107 % of control"},
      {"measurement": "T/C", "setting": "endpoint: median survival time, dose: 6.25 mg/kg/injection, schedule: Q01DX009 (ip), vehicle: saline with Tween-80, higher = longer survival", "value": "87 % of control"},
      {"measurement": "T/C", "setting": "endpoint: median survival time, dose: 12.5 mg/kg/injection, schedule: Q01DX009 (ip), vehicle: saline with Tween-80, higher = longer survival", "value": "94 % of control"}
    ]},
    {"compound": "CC(=O)C1=C(O)C2(C)c3c(O)c(C)c(O)c(C(C)=O)c3OC2(Sc2ccccc2)CC1=O", "note": "(stereo not drawn)", "values": [
      {"measurement": "T/C", "setting": "endpoint: median survival time, dose: 6.25 mg/kg/injection, schedule: Q01DX009 (ip), vehicle: gum acacia, higher = longer survival", "value": "101 % of control"},
      {"measurement": "T/C", "setting": "endpoint: median survival time, dose: 25.0 mg/kg/injection, schedule: Q01DX009 (ip), vehicle: gum acacia, higher = longer survival", "value": "101 % of control"},
      {"measurement": "T/C", "setting": "endpoint: median survival time, dose: 50.0 mg/kg/injection, schedule: Q01DX009 (ip), vehicle: gum acacia, higher = longer survival", "value": "97 % of control"}
    ]},
    {"compound": "CC1OC(O[C@@H]2C=C3CC[C@@H]4[C@H](CC[C@]5(C)[C@@H](c6ccc(=O)oc6)CC[C@]45O)[C@@]3(C)CC2)C(O)C(OC2OC(CO)C(O)C(O)C2O)C1O", "note": "(stereo partly drawn)", "values": [
      {"measurement": "T/C", "setting": "endpoint: mean tumor weight, dose: 1.2 mg/kg/injection, schedule: Q01DX011 (ip), vehicle: carboxymethylcellulose (CMC), higher = larger tumour", "value": "106 % of control"},
      {"measurement": "T/C", "setting": "endpoint: mean tumor weight, dose: 2.5 mg/kg/injection, schedule: Q01DX011 (ip), vehicle: carboxymethylcellulose (CMC), higher = larger tumour", "value": "102 % of control"},
      {"measurement": "T/C", "setting": "endpoint: mean tumor weight, dose: 5.0 mg/kg/injection, schedule: Q01DX011 (ip), vehicle: carboxymethylcellulose (CMC), higher = larger tumour", "value": "80 % of control"}
    ]},
    {"compound": "CC(=O)CC(C)=O.CC(=O)CC(C)=O.CC(=O)CC(C)=O.[V]", "values": [
      {"measurement": "T/C", "setting": "endpoint: median survival time, dose: 3.12 mg/kg/injection, schedule: Q01DX009 (ip), vehicle: saline, higher = longer survival", "value": "109 % of control"},
      {"measurement": "T/C", "setting": "endpoint: median survival time, dose: 6.25 mg/kg/injection, schedule: Q01DX009 (ip), vehicle: saline, higher = longer survival", "value": "109 % of control"},
      {"measurement": "T/C", "setting": "endpoint: median survival time, dose: 12.5 mg/kg/injection, schedule: Q01DX009 (ip), vehicle: saline, higher = longer survival", "value": "94 % of control"}
    ]},
    {"compound": "O=C1CC(c2ccc(O)cc2)CC(=O)C1C(C1CC=CCC1)N(CCCl)CCCl", "note": "(stereo not drawn)", "values": [
      {"measurement": "T/C", "setting": "endpoint: median survival time, dose: 25.0 mg/kg/injection, schedule: Q01DX009 (ip), vehicle: Klucel (hydroxypropylcellulose) (HPC), higher = longer survival", "value": "122 % of control"},
      {"measurement": "T/C", "setting": "endpoint: median survival time, dose: 50.0 mg/kg/injection, schedule: Q01DX009 (ip), vehicle: Klucel (hydroxypropylcellulose) (HPC), higher = longer survival", "value": "123 % of control"},
      {"measurement": "T/C", "setting": "endpoint: median survival time, dose: 100.0 mg/kg/injection, schedule: Q01DX009 (ip), vehicle: Klucel (hydroxypropylcellulose) (HPC), higher = longer survival", "value": "115 % of control"},
      {"measurement": "T/C", "setting": "endpoint: median survival time, dose: 200.0 mg/kg/injection, schedule: Q01DX009 (ip), vehicle: Klucel (hydroxypropylcellulose) (HPC), higher = longer survival", "value": "111 % of control"},
      {"measurement": "T/C", "setting": "endpoint: median survival time, dose: 400.0 mg/kg/injection, schedule: Q01DX009 (ip), vehicle: Klucel (hydroxypropylcellulose) (HPC), higher = longer survival", "value": "98 % of control"}
    ]},
    {"compound": "CC1OC(OCC2OC(Oc3c(-c4ccc(O)c(O)c4)oc4cc(O)cc(O)c4c3=O)C(O)C(O)C2O)C(O)C(O)C1O", "note": "(stereo not drawn)", "values": [
      {"measurement": "T/C", "setting": "endpoint: mean tumor weight, dose: 62.5 mg/kg/injection, schedule: Q01DX011 (ip), vehicle: saline, higher = larger tumour", "value": "104 % of control"},
      {"measurement": "T/C", "setting": "endpoint: mean tumor weight, dose: 125.0 mg/kg/injection, schedule: Q01DX011 (ip), vehicle: saline, higher = larger tumour", "value": "93 % of control"},
      {"measurement": "T/C", "setting": "endpoint: mean tumor weight, dose: 250.0 mg/kg/injection, schedule: Q01DX011 (ip), vehicle: saline, higher = larger tumour", "value": "67 % of control"},
      {"measurement": "T/C", "setting": "endpoint: mean tumor weight, dose: 500.0 mg/kg/injection, schedule: Q01DX011 (ip), vehicle: saline, higher = larger tumour", "value": "52 % of control"}
    ]},
    {"compound": "Cc1nnc(NS(=O)(=O)c2ccc(N=Nc3nc4[nH]c(N)nc(=S)c4[nH]3)cc2)s1", "values": [
      {"measurement": "T/C", "setting": "endpoint: median survival time, dose: 25.0 mg/kg/injection, schedule: Q01DX009 (ip), vehicle: saline, higher = longer survival", "value": "109 % of control"},
      {"measurement": "T/C", "setting": "endpoint: median survival time, dose: 50.0 mg/kg/injection, schedule: Q01DX009 (ip), vehicle: saline, higher = longer survival", "value": "106 % of control"},
      {"measurement": "T/C", "setting": "endpoint: median survival time, dose: 100.0 mg/kg/injection, schedule: Q01DX009 (ip), vehicle: saline, higher = longer survival", "value": "98 % of control"},
      {"measurement": "T/C", "setting": "endpoint: median survival time, dose: 200.0 mg/kg/injection, schedule: Q01DX009 (ip), vehicle: saline, higher = longer survival", "value": "98 % of control"}
    ]},
    {"compound": "COc1cc([C@@H]2c3cc4c(cc3[C@H](O)[C@H]3COC(=O)[C@H]23)OCO4)cc(OC)c1OC", "values": [
      {"measurement": "T/C", "setting": "endpoint: mean tumor weight, dose: 1.0 mg/kg/injection, schedule: Q01DX011 (ip), vehicle: carboxymethylcellulose (CMC), higher = larger tumour", "value": "84 % of control"},
      {"measurement": "T/C", "setting": "endpoint: mean tumor weight, dose: 2.0 mg/kg/injection, schedule: Q01DX011 (ip), vehicle: carboxymethylcellulose (CMC), higher = larger tumour", "value": "36 % of control"}
    ]},
    {"compound": "COc1ccc(-c2c(CC(=O)O)c3cc(OC)ccc3n2Cc2ccc(Cl)cc2)cc1", "values": [
      {"measurement": "T/C", "setting": "endpoint: mean tumor weight, dose: 222.0 mg/kg/injection, schedule: Q01DX011 (ip), vehicle: other, higher = larger tumour", "value": "164 % of control"},
      {"measurement": "T/C", "setting": "endpoint: mean tumor weight, dose: 333.0 mg/kg/injection, schedule: Q01DX011 (ip), vehicle: other, higher = larger tumour", "value": "151 % of control"}
    ]},
    {"compound": "CC(=O)[C@H]1CC[C@H]2[C@@H]3CC[C@@H]4CC(=O)CC[C@]4(C)[C@H]3[C@@H]3O[C@@H]3[C@]12C", "values": [
      {"measurement": "T/C", "setting": "endpoint: mean tumor weight, dose: 37.0 mg/kg/injection, schedule: Q01DX011 (ip), vehicle: other, higher = larger tumour", "value": "150 % of control"},
      {"measurement": "T/C", "setting": "endpoint: mean tumor weight, dose: 55.0 mg/kg/injection, schedule: Q01DX011 (ip), vehicle: other, higher = larger tumour", "value": "99 % of control"},
      {"measurement": "T/C", "setting": "endpoint: mean tumor weight, dose: 83.0 mg/kg/injection, schedule: Q01DX011 (ip), vehicle: other, higher = larger tumour", "value": "108 % of control"},
      {"measurement": "T/C", "setting": "endpoint: mean tumor weight, dose: 250.0 mg/kg/injection, schedule: Q01DX011 (ip), vehicle: other, higher = larger tumour", "value": "122 % of control"}
    ]}
  ]
}
